Results taken from patent US6927214B1 (Novo Nordisk A/S, priority 1999, dated 2005).
pEC50: −log10 of the molar value.

target: T1, human glucagon receptor (Homo sapiens, UniProt P47871); assay: Stimulation of cAMP formation in a cell line expressing the cloned human glucagon receptor; assay type: biochemical; details: concentrations tested up to 100 μM
T1 construct: expressed in transfected cells
T1 sequence (P47871 26-477): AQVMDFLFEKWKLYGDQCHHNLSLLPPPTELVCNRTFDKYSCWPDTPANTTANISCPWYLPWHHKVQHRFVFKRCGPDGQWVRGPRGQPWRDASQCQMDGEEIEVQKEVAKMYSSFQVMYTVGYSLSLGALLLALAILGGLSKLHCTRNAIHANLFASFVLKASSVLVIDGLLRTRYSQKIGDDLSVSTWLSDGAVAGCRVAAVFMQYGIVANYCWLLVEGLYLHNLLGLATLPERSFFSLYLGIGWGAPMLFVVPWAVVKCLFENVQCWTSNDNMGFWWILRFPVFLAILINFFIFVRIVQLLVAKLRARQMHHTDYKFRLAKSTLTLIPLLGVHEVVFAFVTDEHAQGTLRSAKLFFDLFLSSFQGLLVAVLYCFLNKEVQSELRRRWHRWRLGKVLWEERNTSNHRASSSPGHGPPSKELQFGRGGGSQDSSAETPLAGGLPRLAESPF

SMILES | agonist activity (cAMP formation)
Cc1nnc(Sc2nc3cc(Cl)c(Cl)cc3nc2C(F)(F)F)s1 [Example 2, 6,7-Dichloro-2-trifluoromethyl-3-(5-methyl-1,3,4-thiadiazol-2-ylsulfanyl)quinoxaline] | no measurable activity

tested on: not given; assay: not given; details: not given

SMILES | melting point [°C]
Cc1nnc(Sc2nc3ccc(C(=O)c4ccccc4)cc3nc2C(F)(F)F)s1 [Example 158, [2-(5-Methyl-[1,3,4]thiadiazol-2-ylsulfanyl)-3-trifluorophenylquinoxalin-6-yl]phenyl Methanone] | 160 to 162

target: T2, human GLP-1 receptor (Homo sapiens, UniProt P43220); assay: biochemical; details: not given
T2 sequence (P43220 24-463): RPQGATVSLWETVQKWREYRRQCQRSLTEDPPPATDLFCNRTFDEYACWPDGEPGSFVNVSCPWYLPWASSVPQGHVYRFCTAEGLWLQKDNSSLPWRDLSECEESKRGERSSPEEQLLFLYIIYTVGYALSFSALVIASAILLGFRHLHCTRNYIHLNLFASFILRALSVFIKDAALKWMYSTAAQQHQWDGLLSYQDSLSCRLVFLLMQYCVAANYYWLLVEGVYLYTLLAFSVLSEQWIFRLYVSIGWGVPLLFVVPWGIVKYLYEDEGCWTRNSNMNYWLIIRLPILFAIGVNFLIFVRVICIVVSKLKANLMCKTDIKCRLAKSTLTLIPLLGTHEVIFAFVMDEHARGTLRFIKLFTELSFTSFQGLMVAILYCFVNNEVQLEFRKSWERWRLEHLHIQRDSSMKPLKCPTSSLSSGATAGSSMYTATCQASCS

SMILES | pEC50 | Emax [%] | Emax at 1 µM [%] | Emax at 0.01 µM [%] | Emax at 3.3 µM [%] | Emax at 0.33 µM [%]
CC(C)c1nc2cc(Cl)c(Cl)cc2nc1S(=O)(=O)c1cncn1C [Example 65, 6,7-Dichloro-2-isopropyl-3-(1-methyl-1H-imidazol-5-ylsulfonyl)quinoxaline] | 6.19 | 53 | – | – | – | –
CS(=O)(=O)c1nc2cc(Cl)c(Cl)cc2nc1NC1CCCc2ccccc21 (stereo not shown) [Example 108, N-[6,7-Dichloro-3-(methylsulfonyl)-2-quinoxalinyl]-N-(1,2,3,4-tetrahydro-naphthalene-1-yl)amine] | 6.17 | 54 | – | – | – | –
CC(C)Nc1nc2cc(Cl)c(Cl)cc2nc1S(=O)(=O)Cc1ccc(OC(F)F)cc1 [Example 136, (6,7-Dichloro-3-{[4-(difluoromethoxy)benzyl]sulfonyl}quinoxalin-2-yl)isopropylamine] | 6.09 | 64 | – | – | – | –
Cn1ccnc1S(=O)(=O)c1nc2cc(Cl)c(Cl)cc2nc1NC(C)(C)C [Example 138, (6,7-Dichloro-3-[(1-methyl-1H-imidazol-2-yl)sulfonyl]quinoxalin-2-yl)-tert-butylamine] | 6.27 | 72 | – | – | – | –
O=[N+]([O-])c1cc2nc(-c3ccccc3)c(C(F)(F)F)nc2cc1[N+](=O)[O-] [Example 145, 6,7-Dinitro-2-phenyl-3-trifluoromethylquinoxaline] | – | – | – | – | – | 36
O=[N+]([O-])c1cc2ncc(-c3ccc(C(F)(F)F)cc3)nc2cc1[N+](=O)[O-] [Example 147, 6,7-Dinitro-2-(4-trifluoromethylphenyl)quinoxaline] | – | – | 31 | – | – | –
FC(F)(F)c1nc2cc(Cl)c(Cl)cc2nc1Sc1nccs1 [Example 156, 6,7-Dichloro-2-(thiazol-2-ylsulfanyl)-3-trifluoromethyl-quinoxaline] | – | – | – | 42 | – | –
O=C(c1ccccc1)c1ccc2nc(Br)c(C(F)(F)F)nc2c1 [Example 157, (2-Bromo-3-trifluoromethyl-quinoxalin-6-yl)phenyl Methanone] | – | – | – | – | 15 | –
CC(C)CCS(=O)(=O)c1nc2cc(Cl)ccc2nc1C(F)(F)F [Example 169, 6-Chloro-3-(3-methylbutylsulfonyl)-2-trifluoromethyl-quinoxaline] | – | – | 19 | – | – | –
CC(C)CCS(=O)(=O)c1nc2ccc(Cl)cc2nc1C(F)(F)F [Example 170, 6-Chloro-2-(3-methylbutyl-1-sulfonyl)-3-trifluoromethyl-quinoxaline] | – | – | 33 | – | – | –

Second part, led by results:

pEC50 | Emax [%] | Emax at 1 µM [%] | Emax at 0.01 µM [%] | Emax at 3.3 µM [%] | SMILES | Emax at 0.33 µM [%]
6.11 | 53 | – | – | – | CCCc1nc2cc(Cl)c(Cl)cc2nc1S(C)(=O)=O [Example 92, 6,7-Dichloro-2-(methylsulfonyl)-3-propylquinoxaline] | –
7.30 | 80 | – | – | – | CC(C)(C)Nc1nc2cc(Cl)c(Cl)cc2nc1S(C)(=O)=O [Example 103, N-[6,7-Dichloro-3-(methylsulfonyl)-2-quinoxalinyl]N-tert-butylamine] | –
6.54 | 76 | – | – | – | CCC(C)(C)Nc1nc2cc(Cl)c(Cl)cc2nc1S(C)(=O)=O [Example 135, (6,7-Dichloro-3-(methylsulfonyl)═quinoxalin-2-yl)tert-pentylamine] | –
6.18 | 46 | – | – | – | CC(C)Sc1nc2cc(Cl)c(Cl)cc2nc1S(C)(=O)=O [Example 137, 6,7-Dichloro-2-(isopropylsulfanyl)-3-(methylsulfonyl)quinoxaline] | –

target: T2, human GLP-1 receptor; assay: not given; design: Emax: dose or concentration left out as unconfirmed; details: not given

SMILES | pEC50 | Emax [%]
Cc1nnc([S+]([O-])c2nc3cc(Cl)c(Cl)cc3nc2C(C)C)s1 (stereo not shown) [Example 6, 6,7-Dichloro-2-isopropyl-3-(5-methyl-1,3,4-thiadiazol-2-ylsulfinyl)quinoxaline] | 6.77 | 94
Cc1nnc(S(=O)(=O)c2nc3cc(Cl)c(Cl)cc3nc2C(C)C)s1 [Example 7, 6,7-Dichloro-2-isopropyl-3-(5-methyl-1,3,4-thiadiazol-2-ylsulfonyl)quinoxaline] | 7.11 | 120
O=Cc1cc2cc(Cl)ccc2nc1Cl [Example 25, 2,6-Dichloroquinoline-3-carbaldehyde] | – | 15
CSc1nc2ccc(Cl)cc2cc1C=O [Example 29, 6-Chloro-2-methylsulfanylquinoline-3-carbaldehyde] | – | 13
Cc1nc2cc(Cl)ccc2nc1Cl [Example 46, 2,6-Dichloro-3-methylquinoxaline] | < 4.48 | 0
COc1nc2ccc(Cl)cc2nc1Cl [Example 47, 2,7-Dichloro-3-methoxyquinoxaline] | 5.00 | 50

Results, then the compound that gave them:

pEC50 | Emax [%] | SMILES
6.51 | 100 | Cc1nnc(Sc2nc3cc(Cl)c(Cl)cc3nc2C(F)(F)F)s1 [Example 2, 6,7-Dichloro-2-trifluoromethyl-3-(5-methyl-1,3,4-thiadiazol-2-ylsulfanyl)quinoxaline]
6.80 | 120 | CS(=O)(=O)c1nc2cc(Cl)c(Cl)cc2nc1C(F)(F)F [Example 19, 6,7-Dichloro-2-methanesulfonyl-3-trifluoromethylquinoxaline]
7.17 | 140 | CC(C)S(=O)(=O)c1nc2cc(Cl)c(Cl)cc2nc1C(F)(F)F [Example 20, 6,7-Dichloro-2-trifluoromethyl-3-isopropylsulfonylquinoxaline]
7.11 | 130 | Cc1nc2cc(Cl)c(Cl)cc2nc1S(C)(=O)=O [Example 56, 6,7-Dichloro-3-methyl-2-(methylsulfonyl)quinoxaline]

target: T2, human GLP-1 receptor; assay: Saturation experiments with labelled GLP-1 tracer on plasma membranes, with or without example 2; assay type: binding; design: expressed in transfected cells; host or cells: BHK (baby hamster kidney) cells; plasma membranes prepared from them; details: 10 μM compound, saturation experiment

SMILES | effect on the affinity of the receptor for GLP-1
Cc1nnc(Sc2nc3cc(Cl)c(Cl)cc3nc2C(F)(F)F)s1 [Example 2, 6,7-Dichloro-2-trifluoromethyl-3-(5-methyl-1,3,4-thiadiazol-2-ylsulfanyl)quinoxaline] | changed the affinity of the receptor for GLP-1
